pEC50: −log10 of the molar value.
The compounds below were run on HBV (encapsidated HBV DNA, HepG2.2.15 cells) (assay: HBV replication inhibition assay, BDNA assay in HepG2.2.15 cells). Details: Activity in BDNA-assay.
Format: cell-based
Procedure: HBV replication inhibition by the disclosed compounds were determined in cells infected or transfected with HBV, or cells with stably integrated HBV, such as HepG2.2.15 cells (Sells et al. 1987). In this example, HepG2.2.15 cells were maintained in cell culture medium containing 10% fetal bovine serum (FBS), Geneticin, L-glutamine, penicillin and streptomycin. HepG2.2.15 cells were seeded in 96-well plates at a density of 40,000 cells/well and were treated with serially diluted compounds at a final DMSO concentration of 0.5% either alone or in combination by adding drugs in a checker box format. Cells were incubated with compounds for three days, after which medium was removed and fresh medium containing compounds was added to cells and incubated for another three days. At day 6, supernatant was removed and treated with DNase at 37° C. for 60 minutes, followed by enzyme inactivation at 75° C. for 15 minutes. Encapsidated HBV DNA was released from the virions and covalently linked HBV polymerase by incubating in lysis buffer (Affymetrix QS0010) containing 2.5 μg proteinase K at 50° C. for 40 minutes. HBV DNA was denatured by addition of 0.2 M NaOH and detected using a branched DNA (BDNA) QuantiGene assay kit according to manufacturer recommendation (Affymetrix). HBV DNA levels were also quantified using qPCR, based on amplification of encapsidated HBV DNA extraction with QuickExtraction Solution (Epicentre Biotechnologies) and amplification of HBV DNA using HBV specific PCR probes that can hybridize to HBV DNA and a fluorescently labeled probe for quantitation. In addition, cell viability of HepG2.2.15 cells incubated with test compounds alone or in combination was determined by using CellTitre-Glo reagent according to the manufacturer protocol (Promega). The mean background signal from wells containing only culture medium was subtracted from all other samples, and percent inhibition at each compound concentration was calculated by normalizing to signals from HepG2.2.15 cells treated with 0.5% DMSO using equation E1. % inhibition=(DMSOave−Xi)/DMSOave×100% E1: where DMSOave is the mean signal calculated from the wells that were treated with DMSO control (0% inhibition control) and Xi is the signal measured from the individual wells. EC50 values, effective concentrations that achieved 50% inhibitory effect, were determined by non-linear fitting using Graphpad Prism software (San Diego, Calif.) and equation E2: Y=Y min+(Y max −Y min)/(1+10(Log EC50−X)×HillSlope) E2: […]
where Y represents percent inhibition values and X represents the logarithm of compound concentrations.
Selected disclosed compounds were assayed in the HBV replication assay (BDNA assay), as described above and a representative group of these active compounds is shown in Table 6.
Compound `C[C@@H]1Cc2nn3c(c2CN1C(=O)Nc1ccc(F)c(C#N)c1)C(=O)N(C)CC(CO)C3` (single isomer, unassigned) [Compound 087_D2, (3R,8R*)—N-(3-cyano-4-fluorophenyl)-8-(hydroxymethyl)-3,10-dimethyl-11-oxo-1,3,4,7,8,9,10,11-octahydro-2H-pyrido[4′,3′:3,4]pyrazolo[1,5-a][1,4]diazepine-2-carboxamide] has a pEC50 of 7.00 to 9.00. `C[C@@H]1Cc2nn3c(c2CN1C(=O)Nc1ccc(F)c(C#N)c1F)C(=O)N(C)CC(CO)C3` (single isomer, unassigned) [Compound 088_D2, (3R,8R*)—N-(3-cyano-2,4-difluorophenyl)-8-(hydroxymethyl)-3,10-dimethyl-11-oxo-1,3,4,7,8,9,10,11-octahydro-2H-pyrido[4′,3′:3,4]pyrazolo[1,5-a][1,4]diazepine-2-carboxamide] showed a pEC50 of 7.00 to 9.00. `C[C@@H]1Cc2nn3c(c2CN1C(=O)Nc1ccc(F)c(Cl)c1F)C(=O)N(C)CC(CO)C3` (single isomer, unassigned) [Compound 089_D2, (3R,8R*)—N-(3-chloro-2,4-difluorophenyl)-8-(hydroxymethyl)-3,10-dimethyl-11-oxo-1,3,4,7,8,9,10,11-octahydro-2H-pyrido[4′,3′:3,4]pyrazolo[1,5-a][1,4]diazepine-2-carboxamide] was tested, and the pEC50 was 7.00 to 9.00. `C[C@@H]1Cc2nn3c(c2CN1C(=O)Nc1cc(Cl)c(F)cc1F)C(=O)N(C)CC(CO)C3` (single isomer, unassigned) [Compound 090_D2, (3R,8R*)—N-(5-chloro-2,4-difluorophenyl)-8-(hydroxymethyl)-3,10-dimethyl-11-oxo-1,3,4,7,8,9,10,11-octahydro-2H-pyrido[4′,3′:3,4]pyrazolo[1,5-a][1,4]diazepine-2-carboxamide] showed a pEC50 of 7.00 to 9.00. `C[C@@H]1Cc2nn3c(c2CN1C(=O)Nc1ccc(F)c(Cl)c1)C(=O)N(CC(F)F)CC(CO)C3` (single isomer, unassigned) [Compound 092_D2, (3R,8 S*)—N-(3-chloro-4-fluorophenyl)-10-(2,2-difluoroethyl)-8-(hydroxymethyl)-3-methyl-11-oxo-1,3,4,7,8,9,10,11-octahydro-2H-pyrido[4′,3′:3,4]pyrazolo[1,5-a][1,4]diazepine-2-carboxamide] gave a pEC50 of 7.00 to 9.00. For `CCC(O)C1CN(C)C(=O)c2c3c(nn2C1)CCN(C(=O)Nc1cc(Cl)c(F)cc1F)C3` (single isomer, unassigned) [Compound 096_E3, (S*)—N-(5-chloro-2,4-difluorophenyl)-8-((S*)-1-hydroxypropyl)-10-methyl-11-oxo-1,3,4,7,8,9,10,11-octahydro-2H-pyrido[4′,3′:3,4]pyrazolo[1,5-a][1,4]diazepine-2-carboxamide], the pEC50 was 6.30 to 7.00. `CCC(O)C1CN(C)C(=O)c2c3c(nn2C1)CCN(C(=O)Nc1ccc(F)c(C#N)c1)C3` (single isomer, unassigned) [Compound 097_E1, (R*)—N-(3-cyano-4-fluorophenyl)-8-((S*)-1-hydroxypropyl)-10-methyl-11-oxo-1,3,4,7,8,9,10,11-octahydro-2H-pyrido[4′,3′:3,4]pyrazolo[1,5-a][1,4]diazepine-2-carboxamide] showed a pEC50 of 7.00 to 9.00. `CCC(O)C1CN(C)C(=O)c2c3c(nn2C1)CCN(C(=O)Nc1ccc(F)c(C#N)c1)C3` (single isomer, unassigned) [Compound 097_E2, (S*)—N-(3-cyano-4-fluorophenyl)-8-((R*)-1-hydroxypropyl)-10-methyl-11-oxo-1,3,4,7,8,9,10,11-octahydro-2H-pyrido[4′,3′: 3,4]pyrazolo[1,5-a][1,4]diazepine-2-carboxamide] was tested, and the pEC50 was 6.30 to 7.00. `CCC(O)C1CN(C)C(=O)c2c3c(nn2C1)CCN(C(=O)Nc1ccc(F)c(C#N)c1)C3` (single isomer, unassigned) [Compound 097_E3, (S*)—N-(3-cyano-4-fluorophenyl)-8-((S*)-1-hydroxypropyl)-10-methyl-11-oxo-1,3,4,7,8,9,10,11-octahydro-2H-pyrido[4′,3′: 3,4]pyrazolo[1,5-a][1,4]diazepine-2-carboxamide] showed a pEC50 of 6.30 to 7.00. `CCC(O)C1CN(C)C(=O)c2c3c(nn2C1)CCN(C(=O)Nc1ccc(F)c(C#N)c1)C3` (single isomer, unassigned) [Compound 097_E4, (R*)—N-(3-cyano-4-fluorophenyl)-8-((R*)-1-hydroxypropyl)-10-methyl-11-oxo-1,3,4,7,8,9,10,11-octahydro-2H-pyrido[4′,3′: 3,4]pyrazolo[1,5-a][1,4]diazepine-2-carboxamide] was tested, and the pEC50 was 7.00 to 9.00. Work on `CCC(O)C1CN(C)C(=O)c2c3c(nn2C1)CCN(C(=O)Nc1ccc(F)c(C#N)c1F)C3` (single isomer, unassigned) [Compound 098_E1, (R*)—N-(3-cyano-2,4-difluorophenyl)-8-((S*)-1-hydroxypropyl)-10-methyl-11-oxo-1,3,4,7,8,9,10,11-octahydro-2H-pyrido[4′,3′:3,4]pyrazolo[1,5-a][1,4]diazepine-2-carboxamide] yielded a pEC50 of 7.00 to 9.00. `CCC(O)C1CN(C)C(=O)c2c3c(nn2C1)CCN(C(=O)Nc1ccc(F)c(C#N)c1F)C3` (single isomer, unassigned) [Compound 098_E2, (S*)—N-(3-cyano-2,4-difluorophenyl)-8-((R*)-1-hydroxypropyl)-10-methyl-11-oxo-1,3,4,7,8,9,10,11-octahydro-2H-pyrido[4′,3′:3,4]pyrazolo[1,5-a][1,4]diazepine-2-carboxamide] showed a pEC50 of 6.00 to 6.30.

Same assay, conditions: Hepatitis B virus, HepG2.2.15, Activity in BDNA-assay
`C[C@@H]1Cc2nn3c(c2CN1C(=O)Nc1ccc(F)c(C#N)c1)C(=O)N(C)CC(CO)C3` (single isomer, unassigned) [Compound 087_D1, (3R,8S*)—N-(3-cyano-4-fluorophenyl)-8-(hydroxymethyl)-3,10-dimethyl-11-oxo-1,3,4,7,8,9,10,11-octahydro-2H-pyrido[4′,3′:3,4]pyrazolo[1,5-a][1,4]diazepine-2-carboxamide] was tested, and the pEC50 was 7.00 to 9.00. With `C[C@@H]1Cc2nn3c(c2CN1C(=O)Nc1ccc(F)c(C#N)c1F)C(=O)N(C)CC(CO)C3` (single isomer, unassigned) [Compound 088_D1, (3R,8S*)—N-(3-cyano-2,4-difluorophenyl)-8-(hydroxymethyl)-3,10-dimethyl-11-oxo-1,3,4,7,8,9,10,11-octahydro-2H-pyrido[4′,3′:3,4]pyrazolo[1,5-a][1,4]diazepine-2-carboxamide] the pEC50 was 7.00 to 9.00. `C[C@@H]1Cc2nn3c(c2CN1C(=O)Nc1ccc(F)c(Cl)c1F)C(=O)N(C)CC(CO)C3` (single isomer, unassigned) [Compound 089_D1, (3R,8S*)—N-(3-chloro-2,4-difluorophenyl)-8-(hydroxymethyl)-3,10-dimethyl-11-oxo-1,3,4,7,8,9,10,11-octahydro-2H-pyrido[4′,3′:3,4]pyrazolo[1,5-a][1,4]diazepine-2-carboxamide] was tested, and the pEC50 was 7.00 to 9.00. Work on `C[C@@H]1Cc2nn3c(c2CN1C(=O)Nc1cc(Cl)c(F)cc1F)C(=O)N(C)CC(CO)C3` (single isomer, unassigned) [Compound 090_D1, (3R,8S*)—N-(5-chloro-2,4-difluorophenyl)-8-(hydroxymethyl)-3,10-dimethyl-11-oxo-1,3,4,7,8,9,10,11-octahydro-2H-pyrido[4′,3′:3,4]pyrazolo[1,5-a][1,4]diazepine-2-carboxamide] yielded a pEC50 of 7.00 to 9.00. Work on `C[C@@H]1Cc2nn3c(c2CN1C(=O)Nc1ccc(F)c(Cl)c1)C(=O)N(CC(F)F)CC(CO)C3` (single isomer, unassigned) [Compound 092_D1, (3R,8R*)—N-(3-chloro-4-fluorophenyl)-10-(2,2-difluoroethyl)-8-(hydroxymethyl)-3-methyl-11-oxo-1,3,4,7,8,9,10,11-octahydro-2H-pyrido[4′,3′:3,4]pyrazolo[1,5-a][1,4]diazepine-2-carboxamide] yielded a pEC50 of 7.00 to 9.00. `CC[C@H](O)[C@@H]1CN(C)C(=O)c2c3c(nn2C1)CCN(C(=O)Nc1cc(Cl)c(F)cc1F)C3` (single isomer, unassigned) [Compound 096_E1, (R*)—N-(5-chloro-2,4-difluorophenyl)-8-((S*)-1-hydroxypropyl)-10-methyl-11-oxo-1,3,4,7,8,9,10,11-octahydro-2H-pyrido[4′,3′:3,4]pyrazolo[1,5-a][1,4]diazepine-2-carboxamide] gave a pEC50 of 7.00 to 9.00. `CCC(O)C1CN(C)C(=O)c2c3c(nn2C1)CCN(C(=O)Nc1cc(Cl)c(F)cc1F)C3` (single isomer, unassigned) [Compound 096_E2, (S*)—N-(5-chloro-2,4-difluorophenyl)-8-((R*)-1-hydroxypropyl)-10-methyl-11-oxo-1,3,4,7,8,9,10,11-octahydro-2H-pyrido[4′,3′:3,4]pyrazolo[1,5-a][1,4]diazepine-2-carboxamide] gave a pEC50 of 6.30 to 7.00.

— patent US10975077B2 (Novira Therapeutics, Inc., priority 2016, dated 2021)
